Reference: US6962931B2, “Self-emulsifying formulations of cholesteryl ester transfer protein inhibitors” (Pfizer Inc., priority 2001, dated 2005)

Assay: PK in rat, oils or preformed emulsions by oral gavage
Set-up: species or system Sprague Dawley rats
Conditions: Sprague-Dawley, in vivo
Source text: Emulsions prepared from olive oil/surfactant provided the best results.

Cmax (100 mg/kg, crystalline ethanolate, Miglyol/Cremophor/0.5% HPMCAS 40/10/50, 100 mg/kg): 1600 ng/mL
AUC(0-t) (100 mg/kg, crystalline ethanolate, Miglyol/Cremophor/0.5% HPMCAS 40/10/50, 100 mg/kg, Tlast = 24 hr): 15000 ng·h/mL
AUC(0-t) (100 mg/kg, crystalline ethanolate, Miglyol/Cremophor/water 40/10/50, 100 mg/kg, Tlast = 24 hr): 23000 ng·h/mL
Cmax (100 mg/kg, crystalline ethanolate, Miglyol/Cremophor/water 40/10/50, 100 mg/kg, conc. in oil 100 mg/mL): 1900 ng/mL
Cmax (100 mg/kg, crystalline ethanolate, Olive oil/Cremophor 80/20, 100 mg/kg): 3600 ng/mL
AUC(0-t) (100 mg/kg, crystalline ethanolate, Olive oil/Cremophor 80/20, 100 mg/kg, Tlast = 24 hr): 45000 ng·h/mL
AUC(0-t) (100 mg/kg, crystalline ethanolate, Olive oil/Cremophor/water 40/10/50, 100 mg/kg, Tlast = 9 hr): 33000 ng·h/mL
Cmax (100 mg/kg, crystalline ethanolate, Olive oil/Cremophor/water 40/10/50, 100 mg/kg, conc. in oil 20 mg/mL): 6200 ng/mL
Cmax (300 mg/kg, amorphous anhydrous, Olive oil): 7300 ng/mL
AUC(0-t) (300 mg/kg, amorphous anhydrous, Olive oil, Tlast = 24 hr): 50000 ng·h/mL
Cmax (375 mg/kg, crystalline ethanolate, Olive oil/caprylic acid/Cremophor/water 10/30/10/50, 375 mg/kg): 4100 ng/mL
AUC(0-t) (375 mg/kg, crystalline ethanolate, Olive oil/caprylic acid/Cremophor/water 10/30/10/50, 375 mg/kg, Tlast = 9 hr): 21000 ng·h/mL
Cmax (500 mg/kg, crystalline ethanolate, Miglyol): 2100 ng/mL
AUC(0-t) (500 mg/kg, crystalline ethanolate, Miglyol, Tlast = 24 hr): 27000 ng·h/mL
AUC(0-t) (500 mg/kg, crystalline ethanolate, Miglyol/Cremophor/water 40/10/50, 500 mg/kg, Tlast = 9 hr): 18000 ng·h/mL
Cmax (500 mg/kg, crystalline ethanolate, Miglyol/Cremophor/water 40/10/50, 500 mg/kg, conc. in oil 100 mg/mL): 4600 ng/mL
Cmax (625 mg/kg, crystalline ethanolate, Olive oil/caprylic acid/triacetin/Cremophor/water 10/15/15/10/50, 625 mg/kg): 4800 ng/mL
AUC(0-t) (625 mg/kg, crystalline ethanolate, Olive oil/caprylic acid/triacetin/Cremophor/water 10/15/15/10/50, 625 mg/kg, Tlast = 9 hr): 26000 ng·h/mL
Compound: CCOC(=O)N1c2ccc(C(F)(F)F)cc2[C@@H](N(Cc2cc(C(F)(F)F)cc(C(F)(F)F)c2)C(=O)OC)C[C@H]1CC [Compound A, [2R,4S] 4-[(3,5-bis-trifluoromethyl-benzyl)-methoxycarbonyl-amino]-2-ethyl-6-trifluoromethyl-3,4-dihydro-2H-quinoline-1-carboxylic acid ethyl ester]
